From ChEMBL document CHEMBL1157539, “Thousands of chemical starting points for antimalarial lead identification” (Nature, 2010)

System: Plasmodium falciparum
Experiment: GSK_TCMDC: Inhibition of Plasmodium falciparum 3D7 in whole erythrocytes, using parasite LDH activity as an index of growth.
Type: functional, organism-based

Structure (SMILES) | XC50 (Plasmodium falciparum, 3D7) | XC50
O=C(Nc1ccc(Cl)cc1)c1ccc(CN2CCCN(Cc3ccccc3)CC2)cc1 | 753 nM | 
COc1cc(Nc2ncc3c(C)nc(-c4cc5ccccc5[nH]4)n3n2)cc(OC)c1OC | 1020 nM | 
CN1CCN(c2nc(NCCc3ccc(O)cc3)nc(NCc3ccccc3-c3ccc(C(F)(F)F)cc3)n2)CC1 | 971 nM | 
Cc1cc(OCCCn2ccnc2)ccc1-c1csc(/N=C(\N)NCc2ccccc2)n1 | 878 nM | 
OC(CNC12CC3CC(CC(C3)C1)C2)c1cccc(C(F)(F)F)c1 (stereo unspecified) | 301 nM | 
Cc1cccc2nc(-c3cccc(-c4cccc(NC(=O)c5cccnc5)c4)c3)[nH]c12 | 228 nM | 
Cc1ccc2nc(Cl)c3cc(C(=O)NCCCN4CCCC4)sc3c2c1 | 1140 nM | 
CN1CCCN(Cc2cccc(-c3ccc(NC(=O)c4ccc(Cl)cc4)cc3)c2)CC1 | 720 nM | 
O=C(NCc1cccc(F)c1)Nc1ccc(-c2ccc(-c3nc4cc(C(F)(F)F)ccc4[nH]3)cc2)cc1 | 769 nM | 
Cc1cc(O)cc2c(C3CCN(CC4CCC(NC(=O)/C=C/c5ccccc5Cl)CC4)CC3)c[nH]c12 (stereo unspecified) | 900 nM | 
Nc1cccc(CNCc2ccc(-c3ccc(-c4nc5ccccc5[nH]4)s3)cc2)c1 | 574 nM | 
O=C(Nc1cccc(CN2CCCN(Cc3cccc(Cl)c3)CC2)c1)c1ccc(Cl)c(Cl)c1 | 992 nM | 
O=C(Nc1cccc(F)c1)N(Cc1ccc(-c2cccc(CN3CCNCC3)c2)cc1)C1CCN(Cc2ccccc2)CC1 | 763 nM | 
CC(C)Oc1cc(-c2ccc(S(C)(=O)=O)cc2)nc(N(Cc2cccc(F)c2F)Cc2cccc(F)c2F)n1 | 121 nM | 
Cc1cc(=NN=Cc2ccccc2Cl)c2ccccc2[nH]1 | 904 nM | 
CCOc1cc(C)ccc1NC1CCN(CCCCNC(=O)c2ccc(NC(=O)c3ccc(Cl)cc3)cc2)CC1 | 714 nM | 
COCCCNC(=N)c1ccc(NC(=O)c2ccc(C(=O)Nc3ccc(C(=N)NCCCOC)cc3)cc2)cc1 | 45 nM | 
CC(C)c1ccc(NC(=O)c2cccc(CN3CCCN(Cc4cccc(O)c4)CC3)c2)cc1 | 772 nM | 
COc1ccc(CC2(c3ccc(F)cc3)N=C(N)N(CCCc3ccc(F)c(F)c3)C2=O)cc1 (stereo unspecified) | 779 nM | 
OC[C@H](Nc1nc(C(Oc2ccccc2)c2ccccc2)nc2[nH]ncc12)c1ccccc1 (stereo partly specified) | 854 nM | 
O=C(Nc1cc(F)cc(-c2cccnc2)c1)c1ccc2c(=O)n(Cc3ccccc3)cnc2c1 | 1330 nM | 
Cc1[nH]c(C)c(-c2ccc(-c3cccc(C(F)(F)F)c3)nc2)c(=O)c1Br | 140 nM | 
CCc1sc(-c2cc(Cl)ccc2OC)nc1C(=O)NCCN1CCCCC1 | 938 nM | 
COC(=O)C1=C(C)NC2=C(C(=O)CC(c3ccc(OC)c(OC)c3)C2)C1c1cccc(O)c1 (stereo unspecified) | 729 nM | 

Structure (SMILES) | XC50 (Plasmodium falciparum, 3D7) | XC50
Cc1ccc(NC(=O)c2ccc(NCCCN(C)Cc3ccccc3)c([N+](=O)[O-])c2)cc1F | 701 nM | 
Cc1cc(N[C@@H](CC(C)C)C(=O)Nc2ccccc2)nc(Nc2ccccc2)n1 | 728 nM | 
CCCN(Cc1nnc(-c2cccs2)o1)C(=O)C1COc2ccccc2O1 (stereo unspecified) | 850 nM | 
O=C(Nc1cccc2ccccc12)N1CCC(NS(=O)(=O)c2cccc(C(F)(F)F)c2)CC1 | 913 nM | 
COc1cc(NC(=O)c2sc(-c3ccc(Cl)cc3)cc2NC(=O)c2ccncc2)ccc1OCCN1CCCC1 | 31.5 nM | 
O=C(NCC1CCN(CC2CCCCC2)C1)c1cc(-c2cccc(C(F)(F)F)c2)cs1 (stereo unspecified) | 738 nM | 
O=C1OC2(CN1CC1CCN(Cc3ccc(O)cc3Cl)C1)c1ccccc1-c1ccccc12 (stereo unspecified) | 1170 nM | 
CC1CN(c2ccc(NC(=O)c3ccc(F)cc3)cc2)CCN1Cc1cccc(F)c1 (stereo unspecified) | 1350 nM | 
Cc1cc(F)ccc1[C@H]1CNCCN1C(=O)N(C)[C@@H](C)c1cc(C(F)(F)F)cc(C(F)(F)F)c1 | 232 nM | 
O=C(NC1CCC(CN2CCC(c3c[nH]c4ccccc34)CC2)CC1)c1cc2ccccc2s1 (stereo unspecified) | 729 nM | 725 nM
CC(=O)Oc1c(C2CCN(CCCCNC(=O)c3ccc(NC(=O)c4ccc(Cl)cc4)cc3)CC2)ccc2ccccc12 | 881 nM | 
COc1ccc2nc3cc(Cl)ccc3c(Nc3ccc(O)c(CN4CC5CCC(CC5)C4)c3)c2c1 | 172 nM | 
CCCCCCCN1CCC(CC(=O)Nc2ccnc3ccc(OC)cc23)CC1 | 722 nM | 
OC(CNc1ccnc(Nc2cccc(Cl)c2)n1)c1cccc(F)c1 (stereo unspecified) | 973 nM | 
COc1cc(Cc2cnc(N)nc2N)ccc1OCc1ccc(-c2csnn2)cc1 | 628 nM | 
O=C(C=Cc1ccc(Cl)c(Cl)c1)NCCCCCN1CCC(CCCNS(=O)(=O)c2ccc(F)cc2)CC1 | 1020 nM | 
Cc1ccc(-c2cc(C(=O)Nc3ccc(S(=O)(=O)N4CCCCC4C)cc3)n[nH]2)c(O)c1 (stereo unspecified) | 1080 nM | 
CCCCCCOc1ccc(C(=O)NCCC2CCN(CCCCCNC(=O)C=Cc3ccc(Cl)c(Cl)c3)CC2)cc1 | 656 nM | 
O=C(Nc1ccc2c(c1)OCO2)NC1CCN(c2ccnc(NCc3ccc(F)cc3)n2)CC1 | 943 nM | 
CC(=O)NC(c1cccs1)c1cc(Cl)c2cccnc2c1O (stereo unspecified) | 317 nM | 
COc1ccc(CNCc2ccc(F)cc2)cc1-c1ccc(S(=O)(=O)NCCN2CCCC2)s1 | 706 nM | 
CNCCNCc1cccc(-c2ccc(-c3nc4cc(C(F)(F)F)ccc4[nH]3)cc2)c1 | 693 nM | 
O=C(/C=C/c1ccc([N+](=O)[O-])cc1)N1CCC(NS(=O)(=O)c2ccc(F)cc2)CC1 | 824 nM | 
CCC(C(=O)Nc1cc(=O)[nH]c2nc(-c3ccco3)nn12)c1ccccc1 (stereo unspecified) | 844 nM | 

Structure (SMILES) | XC50 (Plasmodium falciparum, 3D7) | XC50
O=C(C=Cc1ccc(Br)cc1)NC1CCC(CN2CCC(c3c[nH]c4ccccc34)CC2)CC1 (stereo unspecified) | 682 nM | 
COc1ccc(-c2cnc(NCc3ccccc3)nc2)cc1CNC1CCN(C)CC1 | 782 nM | 
CN(C)c1ccc(C2c3[nH]cnc3CCN2C(=O)Nc2cccc([N+](=O)[O-])c2)cc1 (stereo unspecified) | 966 nM | 
CC(Oc1ccc(Cl)cc1Cl)c1nc(-c2ccc(NC(=O)c3ccco3)cc2)no1 (stereo unspecified) | 905 nM | 
COc1ccc2ccccc2c1CCCCN1CCN(CC(c2ccc(F)cc2)N2CCC(N3CCCC3)CC2)CC1 (stereo unspecified) | 619 nM | 
COc1ccc(CCNC(=O)c2cc3c(=O)n4cccc(C)c4nc3n(C)c2=N)cc1 | 762 nM | 
O=C(Nc1cccc(-c2ccc(CN3CCC(O)CC3)cc2)c1)c1ccc(Cl)cc1 | 961 nM | 
C=CCc1cccc(OC)c1OCCCON1C(=N)N=C(N)NC1(C)C | 3.2 nM | 
COc1c(C2CCN(CCCCNC(=O)c3ccc(C)c(-c4ccc(C(F)(F)F)cc4)c3)CC2)ccc2c1CCCC2 | 883 nM | 
Cc1c(NCCCNCc2cc(Cl)cc(Cl)c2Cl)[nH]c2ccccc2c1=O | 314 nM | 
O=C(CSc1nnc(-c2ccccc2Br)[nH]1)c1c[nH]c2ccccc12 | 982 nM | 
O=C(C=Cc1ccc(Cl)c(Cl)c1)NCCCCCN1CCC(CCCNC(=O)c2ccc3c(c2)OCO3)CC1 | 149 nM | 
COc1cc(Cc2cnc(N)nc2N)cc(OC)c1OCCCCC(=O)O | 1140 nM | 
COc1ccc2ncc(C#N)c(CCN3CCC(NCc4ccc5c(n4)NC(=O)CS5)CC3)c2n1 | 836 nM | 
COc1ccccc1CCC(C)(C)NC(=O)CC(CCc1ccccc1)Nc1ccc(C#N)c2ccccc12 (stereo unspecified) | 919 nM | 
OC(CNCc1cccc(Oc2ccc(Cl)cc2)c1)c1cccc(C(F)(F)F)c1 (stereo unspecified) | 971 nM | 
O=C(Nc1cccc(Cl)c1)N[C@H]1CCN(Cc2ccc(OCCCN3CCCCC3)cc2)C1 | 729 nM | 
CC(O)C1CCCCN1C(=O)c1cccc(-c2cccc(-c3nc4ccccc4[nH]3)c2)c1 (stereo unspecified) | 534 nM | 
Cc1cccc(N2CCN(C3CCC(NC(=O)c4cc5ccccc5[nH]4)CC3)CC2)c1C (stereo unspecified) | 609 nM | 
O=C(NCCCCN1CCC(c2ccc([N+](=O)[O-])cc2)CC1)c1ccc(NC(=O)c2ccc(Cl)cc2)cc1 | 757 nM | 
N=c1n(CCN2CCCCC2)c2ccccc2n1CC(O)c1ccc(Cl)c(Cl)c1 (stereo unspecified) | 320 nM | 
O=C(Nc1ccc(OC2CCN(Cc3ccccc3)CC2)c(Cl)c1)c1ccc(F)cc1 | 796 nM | 
CN(C)C(CNC(=O)c1cc(-c2ccncc2)c(-c2ccc(NC(=O)Nc3cccc(F)c3)cc2)o1)c1ccccc1 (stereo unspecified) | 772 nM | 
O=c1cc(NCCCNC(c2ccccc2)c2ccc(Cl)c(Cl)c2)[nH]c2ccccc12 (stereo unspecified) | 1140 nM | 

Structure (SMILES) | XC50 (Plasmodium falciparum, 3D7) | XC50
O=C(/C=C/c1ccc(Cl)cc1)NCCCCCN1CCCN(C(=O)Nc2ccc(F)c(Cl)c2)CC1 | 781 nM | 
CCOc1ccc(C(=O)Nc2cc(Br)c3c(c2)CNCC3)cc1Cl | 1040 nM | 
Cc1cccc2nc(-c3ccc(-c4cccc(CNCCc5ccncc5)c4)cc3)[nH]c12 | 204 nM | 
C#CCOc1ccc2ccccc2c1CNCCCCCCNCc1c(OCC#C)ccc2ccccc12 | 780 nM | 
COc1ccc2nccc(N3CCC(CCNCc4ccc5c(n4)NC(=O)CS5)CC3)c2c1 | 209 nM | 
COc1ccccc1-c1cc(C(=O)N2CCN(S(=O)(=O)c3ccc(C)cc3)CC2)[nH]n1 | 1160 nM | 
COc1cc2c(cc1C=CC(=O)N1CCN(Cc3nc(O)c4c(C)c(C)sc4n3)CC1)OC(C)C2 (stereo unspecified) | 1020 nM | 
NC(=O)c1ccc2[nH]cc(C3CCN(CC4CCC(NC(=O)/C=C/c5ccc(Cl)c(Cl)c5)CC4)CC3)c2c1 (stereo unspecified) | 761 nM | 867 nM
COc1cc(NC(=O)/C=C/c2cc3ccccc3n2C)ccc1OCCN(C(C)C)C(C)C | 387 nM | 
CC(O)C(C)(CO)NCc1ccc2c3c(cccc13)-c1ccccc1-2 (stereo unspecified) | 818 nM | 
COc1ccc2nc(-c3ccccc3)cc(NCCCNc3cc(-c4ccccc4)nc4ccc(OC)cc34)c2c1 | 122 nM | 
O=C(NCC1CCN(Cc2ccc(F)cc2)C1)c1cc(-c2cccc(C(F)(F)F)c2)cs1 (stereo unspecified) | 960 nM | 
O=C(NCc1ccc(Cl)c(Cl)c1)[C@H]1CNCCN1C(=O)c1ccccc1 | 955 nM | 
O=C(NC1CCN(Cc2ccccc2)CC1)c1ccc2c(=O)n(Cc3ccc(Cl)cc3)c(=S)[nH]c2c1 | 998 nM | 
CC(C)(C)c1ccc(N2C(N)=NC(N)=NC2(C)C)cc1 | 26.7 nM | 
O=C(NCC1CCN(Cc2cccc(C(F)(F)F)c2)C1)c1cc(-c2cccc(F)c2)cs1 (stereo unspecified) | 1180 nM | 
Clc1ccc(-c2nc3cc(-c4ccc5nc(-c6ccc(Cl)cc6)[nH]c5c4)ccc3[nH]2)cc1 | 241 nM | 
O=C(NCc1cccc(C(F)(F)F)c1)c1ccc(-c2nc3cc(F)c(F)cc3[nH]2)cc1 | 776 nM | 
COc1cccc2cc(C(=O)N[C@@H](CC(C)C)C(=O)N[C@H](/C=N/NC(=O)N3CCN(C)CC3)CCc3ccccc3)oc12 | 616 nM | 
CC(=O)Nc1ccc(CN2CCC(N(C)c3ccc(NC(=O)c4cccc(C)c4)cc3)CC2)cc1 | 986 nM | 
CC(=O)N1N=C(c2ccc(F)cc2)Sc2c1nc(-c1ccccc1)n2C(C)=O | 651 nM | 
O=C(Nc1cccc(-c2nn3ccccc3c2-c2ccnc(Nc3cccc(F)c3)n2)c1)c1c(F)ccc(F)c1F | 856 nM | 
